# Source: patent US12077797B2, “Oligopeptide with lipid-lowering activity, preparation method and application thereof” (Nanjing University of Finance and Economics, priority 2022, dated 2024)
# Where a SMILES comes first, the peptide text is derived from it.
# System: HepG2 cells
# Experiment: MTT assay, cell proliferation viability of normal HepG2 cells
# Type: cell-based
# Details: 256 μM, FIG. 5A
# Experimental: i) MTT (also referred to as thiazole blue) assay is used to detect the effects of various components (LPH-I, LPH-II and LPH-III) on the cell proliferation viability of normal HepG2 cells: HepG2 cells in logarithmic growth period are taken and prepared into a cell suspension of 4×10^5 cells/mL with the high glucose DMEM medium containing 10% FBS. Sample wells are set in a 96-well plate, and 100 μL of cell suspension is added to each sample well, and the cells are cultured in a cell incubator for 24 hours to adhere to the wall. After removing the culture medium from the sample wells, the components LPH-I (>10 kDa), LPH-II (3-10 kDa) and LPH-III (<3 kDa) are respectively dissolved in the high glucose DMEM culture medium containing 10% FBS to prepare an oligopeptide culture medium with a concentration of 150 μg/mL, and then added to each sample well, with a volume of 100 μL per well. A blank well is set, no cells are present compared with the sample wells, and 100 μL PBS phosphate buffer (1×, pH 7.2) is used to replace the oligopeptide culture medium. A control well is set with cells compared with the sample wells, and 100 μL PBS phosphate buffer (1×, pH 7.2) is used to replace the oligopeptide culture medium. […] The absorbance is measured at 570 nanometers (nm) wavelength in a microplate reader. […]
smiles,measurement,value
C[C@H](N)C(=O)N[C@@H](Cc1ccc(O)cc1)C(=O)N1CCC[C@H]1C(=O)N[C@@H](Cc1ccccc1)C(=O)O [AYPF] (H-AYPF-OH; N-terminus and C-terminus assumed),effect on the cell viability,a certain effect
